# Legend:
# [1] = cited from earlier work; for Solubility: of the organic acid
# [2] = In vitro release of risperidone from devices loaded with various risperidone addition salts (Example 5); format: physicochemical; conditions: for Percent Risperidone Released at Day 15: cumulative percent of total risperidone released from device, two-fold molar excess of acid, PBS, 37° C., 15 days; for cumulative in vitro release of risperidone after 15 days (percent of total loaded drug): device in 100 mL PBS at 37° C., risperidone salt with two-fold molar excess of acid
SMILES,Percent Risperidone Released at Day 15 [2] [%],cumulative in vitro release of risperidone after 15 days (percent of total loaded drug) [2] [%],Solubility [1] [g/L],"insolubility in water ([1]; neutral free base, 20-25° C.)"
O=C(O)C(O)c1ccccc1 (racemic) [rac-Mandelic],,,158.7,
O=C(O)CNC(=O)c1ccccc1 [Hippuric acid],94,94,,
"O=C(O)CCc1ccc(O)cc1 [Hydroxyphenylpropionic acid, 3-(4-hydroxyphenyl) propionic acid]",92,92,,
"Cc1nc2n(c(=O)c1CCN1CCC(c3noc4cc(F)ccc34)CC1)CCCC2 [Risperidone, risperidone, reference compound]",,,,> 10000 volumes of water per volume of drug
"O=C(O)CCCCCCCCC(=O)O [Sebacic acid, sebacic acid]",55,,,
O=c1[nH]c(=O)c2[nH]c(=O)[nH]c2[nH]1 [Uric acid],16,16,,
"O=C(O)/C=C/c1ccc(O)cc1 [p-Coumaric, p-coumaric acid]",,,1 to 10,

# Second part, led by results:
Percent Risperidone Released at Day 15 [2] [%],cumulative in vitro release of risperidone after 15 days (percent of total loaded drug) [2] [%],SMILES,Solubility [1] [g/L],"insolubility in water ([1]; neutral free base, 20-25° C.)"
45,,"Nc1ccc(C(=O)O)cc1 [PABA, 4-aminobenzoic acid]",,
2.6,2.6,O=C(O)c1ccc(C(=O)O)cc1 [Terephthalic acid],,
55,,"COc1cc(C(=O)O)ccc1O [Vinallic acid, vanillic acid]",,

# — patent US20250009886A1, “COMPOSITIONS FOR SMALL MOLECULE THERAPEUTIC AGENT COMPOUNDS” (Delpor, Inc., priority 2016, published 2025)
